Results from patent US10376502B2, “Alkylated imino sugars exhibiting glucosidase inhibition and their method of use” (Baruch S. Blumberg Institute, priority 2012, dated 2019).

Test system: BVDV
Experiment: BVDV single cycle virus yield reduction assay with plaque titration
Type: cell-based, BVDV (NADL strain)
Settings: Bovine viral diarrhea virus isolates and strains; MDBK cells, MOI 0.5, 22 hours post infection; compound 0.16 μM to 100 μM
Experimental: Cells and viruses: BVDV free MDBK cells (CCL 22) were obtained from the American Type Culture Collection and propagated in DMEMIF12 essential medium supplemented with penicillin (500 U/ml), streptomycin (500 U/ml), and 10% heat inactivated horse serum (Invitrogen). Cells were maintained in a humidified incubator at 37° C. with 5% C02. BVDV (NADL strain). For infections, virus inoculum was added in complete medium and adsorbed for 1 hour at 37‘C’, the inoculum was then removed, the cells washed once with medium and fresh medium containing compounds added. Virus stocks were prepared by freeze thawing the infected cells and culture supernatant three times followed by centrifugation at 1,000 g for 5 min., Stock titers were determined, and stocks were aliquoted and stored at −80° C. WNV was obtained from a eDNA clone of a human 2002 isolate from Texas; virus obtained from BHK cells electroporated with the in vitro synthesized RNA from this eDNA clone was passaged in Vero cells before use in antiviral assays. Dengue virus (DV) serotype 2 was a New Guinea C virus that had been passaged 28 times in suckling mouse brain, twice in Vero cells, and once in C6/36 mosquito cells.
BVDV antiviral and plaque assays: To evaluate antiviral activity against BVDV, a single cycle virus yield reduction assay was performed in the presence of from 0.16 μM to 100 μM through 5-fold dilution. Specifically, 2×10^5 MDBK cells/well were plated in 24 well plates. Twenty four hours later, the cells were infected with BVDV at multiplicity of infection (MOI) of 0.5 PFU/cell in 100 uL complete media. After adsorption for 1 hour at 37° C., the inoculum was removed, and cells were washed with media before media containing vehicle or from 0.16 μM to 100 μM through 5-fold dilution of test compound was added. At 22 hours post infection, both cells and media were collected and freeze-thawed three times before the virus was tittered. For BVDV virus, titer determination, 10^−2, 10^−3, 10^−4 dilutions of virus were inoculated onto MDBK cells as described previously. After absorption and washing the cells were overlaid with medium containing methylcellulose or soft agar and incubated at 37° C. for 3 days or until plaques were visible. Plaques were counted directly under the microscope or after staining with crystal violet in 70% methanol for 15 minutes.

Point of comparison: `CC(C)(C)C(=O)Nc1cccc(CCCN2C[C@H](O)[C@@H](O)[C@H](O)[C@H]2CO)c1` [Entry 15], EC50 2400 nM. Against it:
- CC1CCCCC1N(CCCCCCN1C[C@H](O)[C@@H](O)[C@H](O)[C@H]1CO)C(=O)OC(C)(C)C (some centres unmarked) [Entry 1] — 6-fold lower, 400 nM
- CC1CCCCC1NCCCCCCN1C[C@H](O)[C@@H](O)[C@H](O)[C@H]1CO (some centres unmarked) [Entry 2] — 42-fold higher, 100000 nM
- CC(C)(C)C(=O)N(CCCCCCN1C[C@H](O)[C@@H](O)[C@H](O)[C@H]1CO)C1CCCCC1 [Entry 3] — 12-fold lower, 200 nM
- CC(=O)N(CCCCCCN1C[C@H](O)[C@@H](O)[C@H](O)[C@H]1CO)c1cc(F)ccc1F [Entry 4] — 2.1-fold higher, 5000 nM
- CC(=O)N(CCCCCCN1C[C@H](O)[C@@H](O)[C@H](O)[C@H]1CO)c1ccc(F)cc1F [Entry 5] — 2.5-fold higher, 6000 nM
- CC(C)(C)C(=O)N(CCCCCCN1C[C@H](O)[C@@H](O)[C@H](O)[C@H]1CO)c1cc(F)ccc1F [Entry 6] — 6-fold lower, 400 nM
- CC(C)(C)C(=O)N(CCCCCCN1C[C@H](O)[C@@H](O)[C@H](O)[C@H]1CO)c1ccc(F)cc1F [Entry 7] — 9.6-fold lower, 250 nM
- CC(C)C(=O)N(CCCCCCN1C[C@H](O)[C@@H](O)[C@H](O)[C@H]1CO)C1CCCCC1 [Entry 8] — 5.3-fold lower, 450 nM
- CC(C)(C)CC(=O)N(CCCCCCN1C[C@H](O)[C@@H](O)[C@H](O)[C@H]1CO)C1CCCCC1 [Entry 9] — 13-fold lower, 180 nM
- CC(C)(C)C(=O)N(CCCCCCN1C[C@H](O)[C@@H](O)[C@H](O)[C@H]1CO)C1CC1 [Entry 10] — 1.6-fold higher, 3750 nM
- CC(C)(C)C(=O)N(CCCCCCN1C[C@H](O)[C@@H](O)[C@H](O)[C@H]1CO)C1CCC1 [Entry 11] — 3-fold lower, 800 nM
- CC(C)(C)C(=O)N(CCCCCCN1C[C@H](O)[C@@H](O)[C@H](O)[C@H]1CO)C1CCCC1 [Entry 12] — 2.8-fold lower, 850 nM
- CC(C)(C)C(=O)N(CCCCCCN1C[C@H](O)[C@@H](O)[C@H](O)[C@H]1CO)C1CCCCCC1 [Entry 13] — 6-fold lower, 400 nM
- CC(C)(C)C(=O)N(CCCCCCN1[C@H](CO)[C@@H](O)[C@H](O)[C@H]1CO)C1CCCCC1 [Entry 14] — 8.8-fold higher, 21000 nM
- CC(C)(C)C(=O)Nc1ccc(CCCN2C[C@H](O)[C@@H](O)[C@H](O)[C@H]2CO)cc1 [Entry 16] — higher, > 100000 nM
- CC(C)(C)S(=O)(=O)N(CCCCCCN1C[C@H](O)[C@@H](O)[C@H](O)[C@H]1CO)C1CCCCC1 [Entry 17] — 7.7-fold lower, 310 nM
- O=S(=O)(c1ccccc1)N(CCCCCCN1C[C@H](O)[C@@H](O)[C@H](O)[C@H]1CO)C1CCCCC1 [Entry 18] — 4.8-fold lower, 500 nM
- CC(C)(C)N[S+]([O-])N(CCCCCCN1C[C@H](O)[C@@H](O)[C@H](O)[C@H]1CO)C1CCCCC1 (some centres unmarked) [Entry 19] — 8-fold lower, 300 nM
- O=C(c1ccccc1)N(CCCCCCN1C[C@H](O)[C@@H](O)[C@H](O)[C@H]1CO)C1CCCCC1 [Entry 20] — 7.5-fold lower, 320 nM

Point of comparison: `CC(C)(C)N[S+]([O-])N(CCCCCCN1C[C@H](O)[C@@H](O)[C@H](O)[C@H]1CO)C1CCCCC1` (some centres unmarked) [Entry 19], EC90 25 µM. Against it:
- CC1CCCCC1N(CCCCCCN1C[C@H](O)[C@@H](O)[C@H](O)[C@H]1CO)C(=O)OC(C)(C)C (some centres unmarked) [Entry 1] — 7.1-fold lower, 3.5 µM
- CC(C)(C)C(=O)N(CCCCCCN1C[C@H](O)[C@@H](O)[C@H](O)[C@H]1CO)C1CCCCC1 [Entry 3] — 1.9-fold lower, 13 µM
- CC(=O)N(CCCCCCN1C[C@H](O)[C@@H](O)[C@H](O)[C@H]1CO)c1ccc(F)cc1F [Entry 5] — 2.7-fold higher, 67 µM
- CC(C)(C)C(=O)N(CCCCCCN1C[C@H](O)[C@@H](O)[C@H](O)[C@H]1CO)c1cc(F)ccc1F [Entry 6] — within 1.5-fold, 18 µM
- CC(C)(C)C(=O)N(CCCCCCN1C[C@H](O)[C@@H](O)[C@H](O)[C@H]1CO)c1ccc(F)cc1F [Entry 7] — 1.8-fold higher, 45 µM
- CC(C)C(=O)N(CCCCCCN1C[C@H](O)[C@@H](O)[C@H](O)[C@H]1CO)C1CCCCC1 [Entry 8] — the same, 25 µM
- CC(C)(C)CC(=O)N(CCCCCCN1C[C@H](O)[C@@H](O)[C@H](O)[C@H]1CO)C1CCCCC1 [Entry 9] — 6.2-fold lower, 4 µM
- CC(C)(C)C(=O)N(CCCCCCN1C[C@H](O)[C@@H](O)[C@H](O)[C@H]1CO)C1CCCC1 [Entry 12] — within 1.5-fold, 32 µM
- CC(C)(C)C(=O)N(CCCCCCN1C[C@H](O)[C@@H](O)[C@H](O)[C@H]1CO)C1CCCCCC1 [Entry 13] — 2.8-fold lower, 9 µM
- CC(C)(C)S(=O)(=O)N(CCCCCCN1C[C@H](O)[C@@H](O)[C@H](O)[C@H]1CO)C1CCCCC1 [Entry 17] — 2-fold higher, 50 µM
- O=S(=O)(c1ccccc1)N(CCCCCCN1C[C@H](O)[C@@H](O)[C@H](O)[C@H]1CO)C1CCCCC1 [Entry 18] — within 1.5-fold, 18 µM
- O=C(c1ccccc1)N(CCCCCCN1C[C@H](O)[C@@H](O)[C@H](O)[C@H]1CO)C1CCCCC1 [Entry 20] — 2.3-fold lower, 11 µM

Test system: their target viruses
Experiment: not given
Settings: against their target viruses; cited from earlier work

For `CCCC(=O)O[C@H]1CN2CC[C@H](O)[C@@H]2[C@@H](O)[C@@H]1O` [Cellgosovir], the “concentrations to achieve EC50 values in tissue culture” value is given as “near millimolar”.
For `CCCCN1C[C@H](O)[C@@H](O)[C@H](O)[C@H]1CO` [NBDNJ, N-butyl-DNJ], the “concentrations to achieve EC50 values in tissue culture” value is listed as “near millimolar”.
